Measurements taken from patent US20240382519A1, “MONOVALENT COPPER/PORPHYRIDIUM SP. POLYSACCHARIDE COMPLEXES, RELATED PRODUCTS AND METHODS OF PREPARATION THEREOF” (B.G. NEGEV TECHNOLOGIES AND APPLICATIONS LTD., AT …, priority 2021, published 2024).

Legend:
Conditions in all cases: CFU after 24 h, 0.07% (w/v) polysaccharide, 30 ppm copper, Table 3(b)
C. albicans = system: C. albicans
A. baumannii = system: A. baumannii
E. coli = system: E. coli
B. subtilis = system: B. subtilis
P. aeruginosa = system: P. aeruginosa
S. aureus = system: S. aureus

| SMILES | Cell Viability [%] (C. albicans) | Cell Viability [%] (A. baumannii) | Cell Viability [%] (E. coli) | Cell Viability [%] (B. subtilis) | Cell Viability [%] (P. aeruginosa) | Cell Viability [%] (S. aureus) |
| --- | --- | --- | --- | --- | --- | --- |
| [O]=[Cu] [CuO] | 84.7 ± 4.0 | 87.1 ± 2.3 | 78.1 ± 6.5 | 72.7 ± 4.0 | 79.4 ± 8.9 | 71.2 ± 8.9 |
| [Cl][Cu][Cl] [CuCl2] | 71.0 ± 1.0 | 81.5 ± 7.4 | 81.3 ± 5.6 | 82.0 ± 1.0 | 82.6 ± 6.8 | 81.6 ± 4.5 |
| [Cl][Cu] [CuCl, cuprous chloride] | 90.3 ± 0.6 | 37.4 ± 3.5 | – | 52.6 ± 5.4 | 38.9 ± 4.5 | – |
